Read-outs that look alike come from different tables or passages of the source.
Columns and labels:
CCRF-CEM = assay: Proliferation assay (CellTiter Glo); type: cell-based; conditions: 96 hours
Description: (§1) The dose range for most compounds was 4.6 nM-30 μM. The dose ranges for some compounds were adjusted downward to 0.46 nM-3 μM or 0.08 nM-0.5 μM or 0.03 nM-0.2 μM. […] The results are shown in Tables 3-6 for pancreatic cancer, lung cancer, colon/gastric cancer, and leukemia.

H441 = assay: Proliferation assay (CellTiter Glo); type: cell-based; conditions: 96 hours
Description: as §1

SW620 = assay: Proliferation assay (CellTiter Glo); type: cell-based; conditions: 96 hours
Description: as §1

H358 = assay: Proliferation assay (CellTiter Glo); type: cell-based; conditions: HE58, 96 hours
Description: as §1

H727 = assay: Proliferation assay (CellTiter Glo); type: cell-based; conditions: 96 hours
Description: as §1

HCT116 = assay: Proliferation assay (CellTiter Glo); type: cell-based; conditions: 96 hours
Description: as §1

KP-4 = assay: Proliferation assay (CellTiter Glo); type: cell-based; conditions: 96 hours
Description: as §1

LS180 = assay: Proliferation assay (CellTiter Glo); type: cell-based; conditions: 96 hours
Description: as §1

A549 = assay: Proliferation assay (CellTiter Glo); type: cell-based; conditions: 96 hours
Description: as §1

AsPC-1 = assay: Proliferation assay (CellTiter Glo); type: cell-based; conditions: 96 hours
Description: as §1

Pan2.13 = assay: Proliferation assay (CellTiter Glo); type: cell-based; conditions: 96 hours
Description: as §1

A549 cells = assay: Soft agar colony formation assay; type: cell-based; conditions: 7-10 days, 9-point 3-fold dilution series
Description: To prepare a base agar layer (0.6%), melted 1.2% agar solution was mixed 1:1 (v/v) with 2×DMEM/20% FBS medium in a tube by inverting several times, and 50 μL of the mixture was immediately transferred to a well in a 96-well flat-bottom microplate. The plate was placed at 4° C. for 30 minutes to allow the base agar layer to solidify. Then, the cell agar layer (agar 0.4%) was prepared by transferring 75 μL of the cell and agar mixture containing 1:1:1 (v/v/v) of 1.2% agar solution, 2×DMEM/20% FBS and cell suspension (0.4-4×10E5/mL) to each well of the plates so that each well contained 1000-10000 cells per well. The plates were placed at 4° C. for 15 minutes and then 75 μL of media was added to each well. After incubating the plates overnight in a CO2 incubator, 50 μL of media with or without 5× final concentrations of compounds were added to each well. Each compound was tested in 9-point 3-fold dilution series. The plates were incubated for 7-10 days at 37° C. At the end of incubation period, 28 μL of Calcein AM solution (5 μM) was added to the center of each well. The plates were incubated at 37° C. for 45 minutes before scanning on Acumen (TTP Labtech). Each compound was tested in triplicates. Data was analyzed and compound EC50s were calculated using GraphPad Prism 5.

HL60 = assay: Proliferation assay (CellTiter Glo); type: cell-based, human; conditions: 96 hours
Description: as §1

THP1 = assay: Proliferation assay (CellTiter Glo); type: cell-based, human; conditions: 96 hours
Description: as §1

[1] = tested on: leukemia inhibitory factor (LIF); assay: Western blot analysis of PKC signaling pathway elements in A549 cells; type: cell-based; conditions: Western blot, concentrations of Table 8 (K101A 0.1, 0.5, […]; K101E […]; K102 0.1, 0.5 μM; K103 0.01 μM; Ref1 1 μM; Ref2 0.01 μM)
Description: Cancer cells (2-8 million cells) were seeded in 10 cm dishes and grown overnight. For A549 lung cancer cell line, about 3 million cells were seeded. Cells were then treated with different drugs at concentrations described in Table 8 for a period of time up to 48 hours. Cells were lysed in 0.3-0.5 mL of RIPA buffer (Sigma) supplemented with protease inhibitors (Roche) and phosphatase inhibitors (Sigma). Lysates were assayed for protein concentration using BCA kit (Pierce). Normalized amount of lysates (20-30 μg protein/lane) were run on 4-12% NuPage gel (Life Technologies) and the proteins were transferred to the PVDF or nitrocellulose membrane using iBlot® Transfer Stack (Life Technologies). The membranes were probed with primary antibodies shown in Table 9 at 4° C. overnight after blocking with 1×TBST containing 5% non-fat milk. Antibodies from other vendors could also be used in Western blot analysis. After washing 5 times with 1×TBS containing 0.1% Tween20, the membranes were probed with 2nd antibodies Anti-mouse IgG Dylight 800 conjugate or Anti-rabbit IgG DyLight 680 conjugate (1:10000; Cell signaling or similar IR 2nd antibodies from different vendors) at room temperature for one hour. After washing 5 times, the membranes were scanned using Odyssey® Imaging System (Licor Biosciences).

`CC(=O)OCC1=CC2C3C(C)(C)C3(OC(C)=O)CC(C)C2(O)C2C=C(C)C(=O)C2(O)C1` (stereo not drawn) [Compound K101E] was tested, and the EC50 (CCRF-CEM; CCRF-CEM (K-RAS: G12D), absolute EC50, read-out: Ab EC50) was over 30000 nM, the “Top Inhibition %” value (CCRF-CEM; CCRF-CEM, % of top inhibition) was 34.3% and the EC50 (CCRF-CEM; CCRF-CEM, relative EC50, read-out: Re EC50) was 270 nM. The EC50 (H441; H441 (K-RAS: G12V), absolute EC50, read-out: Ab EC50) was over 30000 nM, the “Top Inhibition %” value (H441; H441, % of top inhibition) was 49.1% and the EC50 (H441; H441, relative EC50, read-out: Re EC50) was 2610 nM. For the same molecule, the EC50 (SW620; SW620 (K-RAS: G12V), absolute EC50, read-out: Ab EC50) was over 30000 nM, the “Top Inhibition %” value (SW620; SW620, % of top inhibition) was 0.0% and the “Top Inhibition %” value (H358; % of top inhibition) was 47.9%. For the same molecule, the EC50 (H358; absolute EC50, read-out: Ab EC50) was over 30000 nM, the EC50 (H358; relative EC50, read-out: Re EC50) was 1250 nM and the EC50 (H727; H727 (K-RAS: G12V), absolute EC50, read-out: Ab EC50) was over 30000 nM. The “Top Inhibition %” value (H727; H727, % of top inhibition) was 49.1%, the EC50 (H727; H727, relative EC50, read-out: Re EC50) was 620 nM and the EC50 (HCT116; HCT116 (K-RAS: G13D), absolute EC50, read-out: Ab EC50) was over 30000 nM. The “Top Inhibition %” value (HCT116; HCT116, % of top inhibition) was 27.4%, the EC50 (HCT116; HCT116, relative EC50, read-out: Re EC50) was 6640 nM and the EC50 (KP-4; KP-4 (K-RAS: G12C), absolute EC50, read-out: Ab EC50) was 1280 nM. For the same molecule, the “Top Inhibition %” value (KP-4; KP-4, % of top inhibition) was 69.1%, the EC50 (KP-4; KP-4, relative EC50, read-out: Re EC50) was 680 nM and the EC50 (LS180; LS180 (K-RAS: G12D), absolute EC50, read-out: Ab EC50) was over 30000 nM. For the same molecule, the “Top Inhibition %” value (LS180; LS180, % of top inhibition) was 1.3%, the EC50 (A549; A549 (K-RAS: G12S), absolute EC50, read-out: Ab EC50) was 2640 nM and the “Top Inhibition %” value (A549; A549, % of top inhibition) was 78.7%. The EC50 (A549; A549, relative EC50, read-out: Re EC50) was 1560 nM, the EC50 (AsPC-1; AsPC-1 (K-RAS: G12D), absolute EC50, read-out: Ab EC50) was over 30000 nM and the “Top Inhibition %” value (AsPC-1; AsPC-1, % of top inhibition) was 35.2%. The EC50 (AsPC-1; AsPC-1, relative EC50, read-out: Re EC50) was 2780 nM, the EC50 (Pan2.13; Pan2.13 (K-RAS: Q61H), absolute EC50, read-out: Ab EC50) was over 200 nM and the “Top Inhibition %” value (Pan2.13; Pan2.13, % of top inhibition) was 49.8%. The EC50 (Pan2.13; Pan2.13, relative EC50, read-out: Re EC50) was 44 nM, the “number of colonies formed in soft agar” value (A549 cells) was “reduced the number of colonies formed by A549 cells in a dose-dependent manner” and the EC50 (HL60; HL60 (N-RAS: Q61L), absolute EC50, read-out: Ab EC50) was 3050 nM. For the same molecule, the “Top Inhibition %” value (HL60; HL60, % of top inhibition) was 63.4%, the EC50 (HL60; HL60, relative EC50, read-out: Re EC50) was 1920 nM and the EC50 (THP1; THP1 (N-RAS: G12D), absolute EC50, read-out: Ab EC50) was 3600 nM. For the same molecule, the “Top Inhibition %” value (THP1; THP1, % of top inhibition) was 51.6%, the EC50 (THP1; THP1, relative EC50, read-out: Re EC50) was 1020 nM and the “protein levels of the leukemia inhibitory factor (LIF)” value [1] was “did not affect”.

From patent publication US10722484B2, “Methods of cancer treatment” (K-Gen, Inc., priority 2016, dated 2020)
